One assay concerns the target Ba/F3 ERBB2 YVMA (Homo sapiens, UniProt P04626, DUP772-775, cells depend on it). In words: Cell viability assay (CellTiter Glo), Ba/F3 cells engineered to express ERBB2 YVMA. The class given is cell-based, mouse. As to conditions: Ba/F3 cells expressing human ERBB2 YVMA mutant, 72 hours, read-out: Ba/F3 ERBB2 YVMA, IC50. The gist of the method:
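Ba/F3 cells (IL-3-independent via stable retroviral human ERBB2 YVMA) seeded 3000/well and given compound from about 10 μM to 0.51 nM in three-fold steps, DMSO ≤0.1%, 72 h at 37° C. Viability by CellTiter Glo luminescence, normalized to DMSO and media-only controls. Sigmoidal nonlinear fit.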

Assay [1] addresses T1, phosphorylated ERBB2 (pERBB2) (Homo sapiens, UniProt P04626).
T1 construct: endogenous in cells; host or cells: BT-474
In words: Detection of phosphorylated ERBB2 (pERBB2) by ELISA in BT-474 cells. The class given is cell-based. Particulars: four hour incubation. The gist of the method: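 BT-474 cells were treated with compounds (fourfold dilutions, 10 μM to 0.01 nM final) for 4 h at 37 °C, then lysed. pERBB2 in lysates was quantified by ELISA with an HRP anti-phosphotyrosine detection antibody and TMB read at 450 nm; % relative activity was normalized to no-cell and 0.1% DMSO controls.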
In general terms: An ELISA detects its analyte on a solid surface through an enzyme-linked reagent.

Assay [2] has as its target T2, phosphorylated EGFR (pEGFR) (Homo sapiens, UniProt P00533).
T2 construct: performed to measure phosphorylated EGFR levels using A431 cells (10% FBS); endogenous in cells; host or cells: A431
The assay can be described thus: Detection of phosphorylated EGFR (pEGFR) by AlphaLISA in EGF-stimulated A431 cells. The class given is cell-based. As to conditions: A431 cells (10% FBS), 4 hours incubation, EGF 30 ng/mL for 10 minutes. The gist of the method: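 A431 cells in 10% FBS were preincubated with compound for 4 h at 37 °C, then stimulated with 30 ng/mL EGF for 10 min and lysed. pEGFR read by AlphaLISA. % inhibition normalised to DMSO and staurosporine controls; IC50 from four-parameter curve fit.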
In general terms: Bead proximity is the source of the signal in Alpha formats.

The structures appear in SMILES notation. pIC50: −log10 of the molar value.

The values below come from US20260078135A1, “POLYCYCLIC QUINAZOLINES FOR INHIBITION OF ERBB2” (Enliven Inc., priority 2022, published 2026).

T1 sequence (P04626 23-1255): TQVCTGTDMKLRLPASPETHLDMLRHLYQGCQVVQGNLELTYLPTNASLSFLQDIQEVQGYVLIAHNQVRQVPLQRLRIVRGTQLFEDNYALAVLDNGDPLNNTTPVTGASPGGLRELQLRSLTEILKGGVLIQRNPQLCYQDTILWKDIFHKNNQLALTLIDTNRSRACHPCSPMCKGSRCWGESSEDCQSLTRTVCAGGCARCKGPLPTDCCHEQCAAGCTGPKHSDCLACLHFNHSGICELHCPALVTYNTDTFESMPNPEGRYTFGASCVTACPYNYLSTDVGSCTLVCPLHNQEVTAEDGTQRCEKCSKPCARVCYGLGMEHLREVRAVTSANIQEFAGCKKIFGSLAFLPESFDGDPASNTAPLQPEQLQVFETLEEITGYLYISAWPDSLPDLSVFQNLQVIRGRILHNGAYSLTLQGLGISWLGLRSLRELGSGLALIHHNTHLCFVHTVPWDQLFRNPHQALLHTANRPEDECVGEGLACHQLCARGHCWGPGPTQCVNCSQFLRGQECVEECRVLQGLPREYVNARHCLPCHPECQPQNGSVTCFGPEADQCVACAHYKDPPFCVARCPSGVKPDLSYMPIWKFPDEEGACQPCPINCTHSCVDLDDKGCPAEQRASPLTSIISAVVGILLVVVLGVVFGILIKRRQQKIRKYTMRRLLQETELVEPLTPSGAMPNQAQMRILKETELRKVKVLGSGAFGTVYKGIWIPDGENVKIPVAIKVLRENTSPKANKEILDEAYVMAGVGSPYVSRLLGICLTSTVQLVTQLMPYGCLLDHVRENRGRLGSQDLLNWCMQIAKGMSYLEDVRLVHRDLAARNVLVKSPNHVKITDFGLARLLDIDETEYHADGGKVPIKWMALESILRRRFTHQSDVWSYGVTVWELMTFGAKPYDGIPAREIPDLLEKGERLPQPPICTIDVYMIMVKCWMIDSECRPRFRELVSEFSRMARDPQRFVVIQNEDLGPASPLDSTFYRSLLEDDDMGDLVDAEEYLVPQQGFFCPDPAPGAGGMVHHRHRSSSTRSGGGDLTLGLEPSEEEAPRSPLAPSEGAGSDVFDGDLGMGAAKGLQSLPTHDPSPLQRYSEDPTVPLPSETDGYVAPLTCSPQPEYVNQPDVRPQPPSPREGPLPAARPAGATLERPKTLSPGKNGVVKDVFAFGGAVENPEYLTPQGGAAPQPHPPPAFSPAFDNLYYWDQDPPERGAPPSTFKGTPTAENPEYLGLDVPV
Ba/F3 ERBB2 YVMA, sequence (P04626 with tags, fused parts or gaps DUP772-775): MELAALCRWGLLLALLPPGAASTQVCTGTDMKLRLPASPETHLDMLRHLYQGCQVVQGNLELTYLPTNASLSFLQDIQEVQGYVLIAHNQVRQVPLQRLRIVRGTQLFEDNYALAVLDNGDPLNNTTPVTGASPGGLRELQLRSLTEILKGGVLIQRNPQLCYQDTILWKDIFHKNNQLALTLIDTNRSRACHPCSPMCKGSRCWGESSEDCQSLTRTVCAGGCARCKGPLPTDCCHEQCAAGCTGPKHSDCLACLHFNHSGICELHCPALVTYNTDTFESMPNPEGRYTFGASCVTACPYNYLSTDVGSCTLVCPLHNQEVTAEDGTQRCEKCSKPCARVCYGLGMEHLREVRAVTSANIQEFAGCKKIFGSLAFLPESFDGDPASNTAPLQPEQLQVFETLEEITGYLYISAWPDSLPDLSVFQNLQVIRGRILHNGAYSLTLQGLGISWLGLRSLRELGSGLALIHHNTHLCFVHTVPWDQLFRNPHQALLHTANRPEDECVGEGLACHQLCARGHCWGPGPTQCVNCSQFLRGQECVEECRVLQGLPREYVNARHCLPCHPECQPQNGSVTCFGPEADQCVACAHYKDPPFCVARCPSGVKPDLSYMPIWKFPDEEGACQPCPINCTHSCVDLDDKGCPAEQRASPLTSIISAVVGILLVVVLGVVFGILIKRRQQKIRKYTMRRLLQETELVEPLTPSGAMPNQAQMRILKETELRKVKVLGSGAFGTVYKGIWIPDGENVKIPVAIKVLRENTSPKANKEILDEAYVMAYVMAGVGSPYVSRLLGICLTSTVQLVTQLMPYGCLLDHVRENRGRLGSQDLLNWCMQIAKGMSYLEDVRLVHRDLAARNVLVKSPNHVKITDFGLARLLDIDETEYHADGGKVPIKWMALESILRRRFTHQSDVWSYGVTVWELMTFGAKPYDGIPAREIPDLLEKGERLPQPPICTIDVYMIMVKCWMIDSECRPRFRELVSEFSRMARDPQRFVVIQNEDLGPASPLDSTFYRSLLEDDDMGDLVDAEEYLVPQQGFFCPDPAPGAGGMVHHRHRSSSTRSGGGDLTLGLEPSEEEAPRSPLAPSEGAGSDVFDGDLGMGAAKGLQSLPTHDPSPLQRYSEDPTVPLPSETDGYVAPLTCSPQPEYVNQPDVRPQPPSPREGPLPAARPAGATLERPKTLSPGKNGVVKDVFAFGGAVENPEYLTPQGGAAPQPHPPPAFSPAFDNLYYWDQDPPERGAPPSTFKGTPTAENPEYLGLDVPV
T2 sequence (P00533 25-1210): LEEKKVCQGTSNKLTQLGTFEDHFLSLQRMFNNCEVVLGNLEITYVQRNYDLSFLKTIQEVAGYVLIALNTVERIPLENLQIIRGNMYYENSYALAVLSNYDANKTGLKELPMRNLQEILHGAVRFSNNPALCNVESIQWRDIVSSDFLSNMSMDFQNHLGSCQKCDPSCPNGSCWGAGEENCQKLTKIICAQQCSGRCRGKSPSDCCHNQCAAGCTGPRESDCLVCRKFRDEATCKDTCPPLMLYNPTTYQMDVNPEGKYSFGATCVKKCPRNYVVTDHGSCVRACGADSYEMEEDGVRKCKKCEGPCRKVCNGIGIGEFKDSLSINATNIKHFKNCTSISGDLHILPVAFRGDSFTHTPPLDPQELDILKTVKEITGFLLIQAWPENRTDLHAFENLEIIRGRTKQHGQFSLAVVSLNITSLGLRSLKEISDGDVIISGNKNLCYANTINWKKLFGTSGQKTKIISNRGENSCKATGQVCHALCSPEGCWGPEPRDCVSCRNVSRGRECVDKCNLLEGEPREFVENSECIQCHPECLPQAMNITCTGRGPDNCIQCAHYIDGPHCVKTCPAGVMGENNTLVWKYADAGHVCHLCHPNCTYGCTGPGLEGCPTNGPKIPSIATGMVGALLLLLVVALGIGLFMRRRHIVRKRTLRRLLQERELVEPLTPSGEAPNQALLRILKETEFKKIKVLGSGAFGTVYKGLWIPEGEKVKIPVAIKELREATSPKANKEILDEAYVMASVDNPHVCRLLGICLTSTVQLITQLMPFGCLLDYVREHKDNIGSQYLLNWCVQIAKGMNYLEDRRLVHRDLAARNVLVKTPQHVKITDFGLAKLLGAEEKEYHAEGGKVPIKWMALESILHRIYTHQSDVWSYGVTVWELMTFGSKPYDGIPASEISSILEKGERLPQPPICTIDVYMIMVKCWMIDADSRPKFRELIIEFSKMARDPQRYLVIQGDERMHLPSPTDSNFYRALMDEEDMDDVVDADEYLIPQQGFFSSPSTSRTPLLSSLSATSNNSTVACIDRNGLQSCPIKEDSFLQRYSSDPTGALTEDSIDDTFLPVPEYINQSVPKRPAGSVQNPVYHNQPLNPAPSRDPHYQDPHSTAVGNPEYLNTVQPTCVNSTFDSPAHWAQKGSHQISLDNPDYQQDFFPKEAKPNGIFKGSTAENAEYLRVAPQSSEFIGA

As a reminder, the pIC50 is −log10 of the IC50, conventionally taken in molar units. Take `Cc1cc(Nc2ncnc3cnc4c(c23)OC[C@H]2CN(C(=O)/C=C/CN(C)C)CCN42)c(F)cc1Oc1ccn2ncnc2c1` [Compound 117, (R,E)-1-(4-((4-([1,2,4]triazolo[1,5-a]pyridin-7-yloxy)-2-fluoro-5-methylphenyl)amino)-6a,7,9,10-tetrahydropyrazino[1,2-d]pyrimido[5′,4′:4,5]pyrido[3,2-b][1,4]oxazin-8(6H)-yl)-4-(dimethylamino)but-2-en-1-one]: on Ba/F3 ERBB2 YVMA, the GI50 stood at 6.57 nM. Further, the values for the pIC50 in assay [1] and in assay [2] were 7.88 and 5.82, respectively.

On to `Cc1cc(Nc2ncnc3cc4c(cc23)N2CCN(C(=O)/C=C/CN(C)C)C[C@@H]2CO4)ccc1Oc1ccc2c(c1)ncn2C` [Compound 12, (R,E)-4-(dimethylamino)-1-(11-((3-methyl-4-((1-methyl-1H-benzo[d]imidazol-5-yl)oxy)phenyl)amino)-1,2,4a,5-tetrahydropyrazino[1′,2′:4,5][1,4]oxazino[3,2-g]quinazolin-3(4H)-yl)but-2-en-1-one], for which the GI50 on Ba/F3 ERBB2 YVMA was 206 nM. The negative-log IC50 (pIC50) is 7.08 in assay [1] and 5.55 in assay [2].

Take `Cc1cc(Nc2ncnc3cnc4c(c23)OC[C@H]2COCCN42)ccc1Oc1ccc2c(c1)ncn2C` [Compound 122, (R)—N-(3-methyl-4-((1-methyl-1H-benzo[d]imidazol-5-yl)oxy)phenyl)-6a,7,9,10-tetrahydro-6H-[1,4]oxazino[4,3-d]pyrimido[5′,4′:4,5]pyrido[3,2-b][1,4]oxazin-4-amine]: the GI50 on Ba/F3 ERBB2 YVMA was 30.9 nM. For the same molecule, the pIC50 in assay [1] was 7.58; in assay [2], less than 5.00.

Regarding `CN(C)C/C=C/C(=O)N1CCN2c3ccc4ncnc(Nc5ccc(Oc6ccn7ncnc7c6)cc5F)c4c3OC[C@@H]2C1` [Compound 95, (S,E)-1-(4-((4-([1,2,4]triazolo[1,5-a]pyridin-7-yloxy)-2-fluorophenyl)amino)-6a,7,9,10-tetrahydropyrazino[1′,2′:4,5][1,4]oxazino[2,3-f]quinazolin-8(6H)-yl)-4-(dimethylamino)but-2-en-1-one], at Ba/F3 ERBB2 YVMA, the GI50 is 19.6 nM. Further, the pIC50 is 7.49 in assay [1] and 5.56 in assay [2].

For the molecule `Cc1cc(Nc2ncnc3cc4c(cc23)N2CCN(C(=O)/C=C/CN(C)C)C[C@@H]2CO4)ccc1Oc1ccn2ncnc2c1` [Compound 10, (R,E)-1-(11-((4-([1,2,4]triazolo[1,5-a]pyridin-7-yloxy)-3-methylphenyl)amino)-1,2,4a,5-tetrahydropyrazino[1′,2′:4,5][1,4]oxazino[3,2-g]quinazolin-3(4H)-yl)-4-(dimethylamino)but-2-en-1-one], on Ba/F3 ERBB2 YVMA, the GI50 is 84.9 nM. Moreover, the pIC50 in assay [1] was 7.49; in assay [2], 5.48.

`C=CC(=O)N1CCN2C[C@H]1COc1c2ccc2ncnc(Nc3ccc(Oc4ccn5ncnc5c4)c(C)c3)c12` [Compound 24, 1-((3S)-13-((4-([1,2,4]triazolo[1,5-a]pyridin-7-yloxy)-3-methylphenyl)amino)-2,3,5,6-tetrahydro-4H-3,7-methano[1,4,7]oxadiazonino[2,3-f]quinazolin-4-yl)prop-2-en-1-one]: the GI50 on Ba/F3 ERBB2 YVMA was greater than 500 nM. The pIC50 in assay [1] is 6.37; in assay [2], less than 5.00.

For `Cc1cc(Nc2ncnc3cc4c(nc23)N2CCNC[C@H]2CO4)ccc1Oc1ccn2ncnc2c1` [Compound 34, (S)—N-(4-([1,2,4]triazolo[1,5-a]pyridin-7-yloxy)-3-methylphenyl)-1,2,3,4,4a,5-hexahydropyrazino[1,2-d]pyrimido[4′,5′:5,6]pyrido[3,2-b][1,4]oxazin-11-amine], at Ba/F3 ERBB2 YVMA, the GI50 came to 474 nM. Further, the pIC50 was 7.27 in assay [1] and less than 5.00 in assay [2].

For the molecule `CN(C)C/C=C/C(=O)N1CCN2c3ccc4ncnc(Nc5ccc(Oc6ccn7ncnc7c6)cc5F)c4c3OC[C@H]2C1` [Compound 119, (R,E)-1-(4-((4-([1,2,4]triazolo[1,5-a]pyridin-7-yloxy)-2-fluorophenyl)amino)-6a,7,9,10-tetrahydropyrazino[1′,2′:4,5][1,4]oxazino[2,3-f]quinazolin-8(6H)-yl)-4-(dimethylamino)but-2-en-1-one], on Ba/F3 ERBB2 YVMA, the GI50 worked out at 11.7 nM. The figures for the pIC50 in assay [1] and in assay [2] were 7.54 and 5.71, respectively.

As for `Cc1cc(Nc2ncnc3cnc4c(c23)OC[C@H]2CN(C)CCN42)ccc1Oc1cc2ncn(C)c2cn1` [Compound 128, (R)-8-methyl-N-(3-methyl-4-((3-methyl-3H-imidazo[4,5-c]pyridin-6-yl)oxy)phenyl)-6,6a,7,8,9,10-hexahydropyrazino[1,2-d]pyrimido[5′,4′:4,5]pyrido[3,2-b][1,4]oxazin-4-amine], the GI50 on Ba/F3 ERBB2 YVMA came out at 211 nM. The pIC50 in assay [1] was 7.45; in assay [2], less than 5.00.

With `Cc1cc(Nc2ncnc3cc4c(nc23)N2CCN(C)C[C@H]2CO4)ccc1Oc1ccn2ncnc2c1` [Compound 33, (S)—N-(4-([1,2,4]triazolo[1,5-a]pyridin-7-yloxy)-3-methylphenyl)-3-methyl-1,2,3,4,4a,5-hexahydropyrazino[1,2-d]pyrimido[4′,5′:5,6]pyrido[3,2-b][1,4]oxazin-11-amine], the GI50 at Ba/F3 ERBB2 YVMA was 271 nM. Moreover, the figures for the pIC50 in assay [1] and in assay [2] were 7.28 and less than 5.00, respectively.

Consider `Cc1cc(Nc2ncnc3cc4c(nc23)N2CCN(C)C[C@H]2CO4)ccc1Oc1cc2ncn(C)c2cn1` [Compound 127, (S)-3-methyl-N-(3-methyl-4-((3-methyl-3H-imidazo[4,5-c]pyridin-6-yl)oxy)phenyl)-1,2,3,4,4a,5-hexahydropyrazino[1,2-d]pyrimido[4′,5′:5,6]pyrido[3,2-b][1,4]oxazin-11-amine], for which the GI50 on Ba/F3 ERBB2 YVMA is greater than 500 nM. For the same molecule, the values for the pIC50 in assay [1] and in assay [2] were 6.08 and less than 5.00, respectively.

`C=CC(=O)N1CCN2c3cc4c(Nc5ccc(Oc6ccn7ncnc7c6)c(C)c5)ncnc4cc3OC[C@@H]2C1` [Compound 3, (S)-1-(11-((4-([1,2,4]triazolo[1,5-a]pyridin-7-yloxy)-3-methylphenyl)amino)-1,2,4a,5-tetrahydropyrazino[1′,2′:4,5][1,4]oxazino[3,2-g]quinazolin-3(4H)-yl)prop-2-en-1-one]: the GI50 on Ba/F3 ERBB2 YVMA was 10.4 nM. The values for the pIC50 in assay [1] and in assay [2] were 7.89 and 6.67, respectively.

For `C=CC(=O)N1CCN2c3ccc4ncnc(Nc5ccc(Oc6ccc7c(c6)ncn7C)c(C)c5)c4c3OC[C@H]2C1` [Compound 20, (R)-1-(4-((3-methyl-4-((1-methyl-1H-benzo[d]imidazol-5-yl)oxy)phenyl)amino)-6a,7,9,10-tetrahydropyrazino[1′,2′:4,5][1,4]oxazino[2,3-f]quinazolin-8(6H)-yl)prop-2-en-1-one], the GI50 on Ba/F3 ERBB2 YVMA was found to be 19.7 nM. Besides, the values for the pIC50 in assay [1] and in assay [2] were 7.56 and 6.82, respectively.

`Cc1ccc(Oc2ccc(Nc3ncnc4ccc5c(c34)OC[C@H]3CN5CCN3C(=O)/C=C/CN(C)C)cc2C)cn1` [Compound 84, (E)-4-(dimethylamino)-1-((3R)-13-((3-methyl-4-((6-methylpyridin-3-yl)oxy)phenyl)amino)-2,3,5,6-tetrahydro-4H-3,7-methano[1,4,7]oxadiazonino[2,3-f]quinazolin-4-yl)but-2-en-1-one]: on Ba/F3 ERBB2 YVMA, the GI50 amounted to 2.95 nM. For the same molecule, the results for the pIC50 in assay [1] and in assay [2] were 7.84 and 7.22, respectively.

For `Cc1cc(Nc2ncnc3cnc4c(c23)OC[C@H]2CN(C)CCN42)ccc1Oc1ccc2c(c1)ncn2C` [Compound 120, (R)-8-methyl-N-(3-methyl-4-((1-methyl-1H-benzo[d]imidazol-5-yl)oxy)phenyl)-6,6a,7,8,9,10-hexahydropyrazino[1,2-d]pyrimido[5′,4′:4,5]pyrido[3,2-b][1,4]oxazin-4-amine], the GI50 at Ba/F3 ERBB2 YVMA was found to be 44.3 nM. Moreover, the pIC50 in assay [1] was 7.58; in assay [2], less than 5.00.
